Laboratory results published in US7183316B2, “Treatment of HPV caused diseases” (Cornell Research Foundation, Inc., priority 2001, dated 2007).

Assays:
HPV16 E7 protein = experiment: Western blotting for HPV16 E7 protein in CaSki cells; type: cell-based; conditions: 24 hours incubation, concentration series in μM
Method: (§1) Ciglitazone was incubated with CaSki cells (prototypic cervical cancer cells known to be infected with HPV16). The number of CaSki cells was 3×10^6 in a 10 cm diameter dish. Incubation were carried out for 24 hours with 0, 1, 5, 10 and 20 μM ciglitazone.
(§2) Western blotting was carried out to determine levels of HPV16 E7 protein. […] Northern blotting was carried out to determine levels of HPV16 E7 mRNA. […] Nuclear run-off testing was carried out to determine level of gene transcription.
(§3) Celebrex™ at concentrations of 0, 0.1, 0.25, 0.5, 1.0, 2.5 and 5.0 μM was incubated with CaSki cell (3.0×10^6 in a 10 cm diameter dish) for 24 hours.

HPV16 E6 mRNA = experiment: Northern blotting for HPV16 E6 mRNA in CaSki cells; type: cell-based; conditions: for levels of HPV16 E6 mRNA (Northern blot): CaSki cells, 24 hours incubation, concentration series in μM; for HPV16 E6 mRNA (Northern blot): Background Example 7: CaSki cells, 24 hours, curcumin 5 μM, resveratrol 15 μM, ciglitazone 20 μM, 15d-PGJ2 15 μM
Method: as §3
Curcumin (5 μM), resveratrol (15 μM), ciglitazone (20 μM) or 15d-PGJ2 (15 μM) were incubated with CaSki cells (3×10^6 in a 10 cm diameter dish) for 24 hours.
Northern blot testing was carried our for HPV16 E6 mRNA.

[1] = system: HPV16 upstream regulatory region (URR); experiment: HPV16 upstream regulatory region luciferase reporter transfected into CaSki cells; type: cell-based; conditions: 24 hours, 0-25 μM, FIG. 1
Method: HPV16 upstream regulatory region (URR) ligated to luciferase gene transfected into CaSki cells is incubated for 24 hours with ciglitazone and with 15d-PGJ2 (in each case, concentration of 0 μM, 5 μM, 10 μM, 15 μM, 20 μM and 25 μM). […] Note that cells contain endogenous activator that drives expression of E7, and ciglitazone and 15d-PGJ2 are shown to inhibit the activation.

HPV16 E7 mRNA [2] = experiment: EGF-mediated induction of HPV16 E7 mRNA in CaSki cells (Northern blot); type: cell-based; conditions: for EGF-mediated induction of HPV16 E7 mRNA (Northern blot): Background Example 5: EGF 10 nanograms/ml, 50 or 100 μM sulindac sulfide, 15 μM ciglitazone, 15 μM 15d-PGJ2; for EGF-mediated induction of HPV16 E7 (Northern blot, mRNA): Background Example 6: EGF 10 nanograms/ml, 100 μM NSAID, 25 μM 15d-PGJ2
Method: Epidermal growth factor at 10 nanograms/ml was added to CaSki cells (3×10^6 in a 10 cm diameter dish) together with 50 μM sulindac sulfide or 100 μM sulindac sulfide or 15 μM ciglitazone or 15 μM 15d-PGJ2.
Northern blot testing was carried out for HPV16 E7 mRNA.
Epidermal growth factor (EGF) at 10 nanograms/ml was incubated with CaSki cells (3×10^6 in a 10 cm diameter dish) and 100 μM ibuprofen, 100 μM piroxicam, 100 μM S-naproxen, 100 μM aspirin, 100 μM sulindac sulfone, 100 μM sulindac sulfide, 100 μM naproxen, 100 μM indomethacin, 100 μM flufenamic acid and for comparison purposes 25 μM 15d-PGJ2.

HPV16 E7 mRNA [3] = experiment: Northern blotting for HPV16 E7 mRNA in CaSki cells; type: cell-based; conditions: 24 hours incubation, concentration series in μM
Method: as §1, §2
NS-398 at concentrations of 0, 10, 20, 40, 60, 100, 250 and 500 μM was incubated with CaSki cells (3×10^6 in a 10 cm diameter dish) for 24 hours.
Northern blotting was carried out to determine HPV16 E7 mRNA levels in each case.

HPV16 [4] = experiment: Treatment of patient with cervical intraepithelial neoplasia; type: in vivo, human; conditions: 25 mg orally each day for six months
Method: A person presents to their gynecologist for evaluation. […] On biopsy, the patient is found to have cervical intraepithelial neoplasia. HPV16 is detected. Treatment with Vioxx™ 25 mg orally each day is begun and given for six months. […] The Vioxx™ is discontinued with no recurrence of cervical intraepithelial neoplasia.

HPV16 [5] = experiment: Treatment of patient with metastasized cervical cancer; type: in vivo, human; conditions: 50 mg orally three times a day for 12 months plus radiation therapy after hysterectomy
Method: A person seeks gynecologic evaluation because of pelvic pain. On pelvic examination, a cervical mass is detected. […] The patient undergoes a hysterectomy along with resection of regional lymph nodes. […] HPV16 is detected. The patient is treated with a course of radiation therapy plus indomethacin 50 mg orally three times a day for 12 months. […] The indomethacin is discontinued.

[6] = system: HPV mediated cutaneous warts; experiment: Topical treatment of patient with HPV mediated cutaneous warts; type: in vivo, human; conditions: ointment containing 5%, twice a day, three months
Excerpt: A child presents to a local dermatologist because of small cutaneous growths on the hand. A diagnosis of HPV mediated cutaneous warts is made. The patient is instructed to apply an ointment containing 5% rosiglitazone to the affected areas twice a day. […] The same results occur with an ointment containing 5% resveratrol instead of the ointment containing rosiglitazone.

## NS(=O)(=O)c1ccc(-n2nc(C(F)(F)F)cc2-c2ccccc2)cc1 [4-[5-Phenyl-3-(trifluoromethyl)-1H-pyrazol-1-yl]benzenesulfonamide]
HPV16 E7 protein
  levels of HPV16 E7 protein (Western blot): suppression
HPV16 E6 mRNA
  levels of HPV16 E6 mRNA (Northern blot): suppression

## CCCCC/C=C/C=C1/C(=O)C=C[C@@H]1C/C=C\CCCC(=O)O [15d-PGJ2, 15-deoxy-Δ12,14-prostaglandin J2]
[1]
  luciferase activity of HPV16 upstream regulatory region: dose dependent inhibition
HPV16 E6 mRNA
  HPV16 E6 mRNA (Northern blot): downregulation
HPV16 E7 mRNA [2]
  EGF-mediated induction of HPV16 E7 mRNA (Northern blot): inhibition
  EGF-mediated induction of HPV16 E7 (Northern blot, mRNA): inhibition

## Cc1ccc(-c2cc(C(F)(F)F)nn2-c2ccc(S(N)(=O)=O)cc2)cc1 [Celebrex™, 4-[5-(4-methylphenyl)-3-(trifluoromethyl)-1H-pyrazol-1-yl]benzenesulfonamide]
HPV16 E7 protein
  levels of HPV16 E7 protein (Western blot): dose dependent suppression
HPV16 E6 mRNA
  levels of HPV16 E6 mRNA (Northern blot): dose dependent suppression

## CS(=O)(=O)c1ccc(-c2cc(Br)sc2-c2ccc(F)cc2)cc1 [DuP-697, 5-bromo-2-(4-fluorophenyl)-3-(4-(methylsulfonyl)phenyl)thiophene]
HPV16 E7 protein
  levels of HPV16 E7 protein (Western blot): suppression
HPV16 E6 mRNA
  levels of HPV16 E6 mRNA (Northern blot): suppression

## CCCCCCCOC(=O)Cc1c(C)n(C(=O)c2ccc(Cl)cc2)c2ccc(OC)cc12 [Indomethacin heptyl ester]
HPV16 E7 protein
  levels of HPV16 E7 protein (Western blot): dose dependent suppression
HPV16 E6 mRNA
  levels of HPV16 E6 mRNA (Northern blot): dose dependent suppression

## COc1ccc2c(c1)c(CC(=O)NCCc1ccccc1)c(C)n2C(=O)c1ccc(Cl)cc1 [N-(2-phenylethyl)-indomethacin amide]
HPV16 E7 protein
  levels of HPV16 E7 protein (Western blot): dose dependent suppression
HPV16 E6 mRNA
  levels of HPV16 E6 mRNA (Northern blot): dose dependent suppression

## CS(=O)(=O)Nc1ccc([N+](=O)[O-])cc1OC1CCCCC1 [NS-398, N-[2-(cylohexyloxy)-4-nitrophenyl]-methanesulfonamide]
HPV16 E7 mRNA [3]
  levels of HPV16 E7 mRNA (Northern blot): dose dependent suppression

## COc1ccc2cc([C@H](C)C(=O)O)ccc2c1 [S-naproxen]
HPV16 E7 mRNA [2]
  EGF-mediated induction of HPV16 E7 (Northern blot, mRNA): not

## NS(=O)(=O)c1ccc(-n2nc(C(F)(F)F)cc2-c2ccc(Cl)cc2)cc1 [SC-236]
HPV16 E7 protein
  levels of HPV16 E7 protein (Western blot): dose dependent suppression
HPV16 E6 mRNA
  levels of HPV16 E6 mRNA (Northern blot): dose dependent suppression

## COc1ccc(-n2nc(C(F)(F)F)cc2-c2ccc(Cl)cc2)cc1 [SC-560, 5-(4-chlorophenyl)-1-(4-methoxyphenyl)-3-(trifluoromethyl)-1H-pyrazole]
HPV16 E7 protein
  levels of HPV16 E7 protein (Western blot): suppression
HPV16 E6 mRNA
  levels of HPV16 E6 mRNA (Northern blot): suppression
HPV16 [4]
  cervical intraepithelial neoplasia on repeat biopsy: no evidence of cervical intraepithelial neoplasia

## CS(=O)(=O)c1ccc(-n2nc(C(F)(F)F)cc2-c2ccc(F)cc2)cc1 [SC-58125, 4-[5-(4-fluorophenyl)-3-(trifluoromethyl)-1H-pyrazol-1-yl]benzenemethylsulfone]
HPV16 E7 protein
  levels of HPV16 E7 protein (Western blot): suppression
HPV16 E6 mRNA
  levels of HPV16 E6 mRNA (Northern blot): suppression

## CS(=O)(=O)c1ccc(C2=C(c3ccccc3)C(=O)OC2)cc1 [Vioxx™, 3-(phenyl)-4-(4-(methylsulfonyl)phenyl)-2-(5H)-furanone]
HPV16 [4]
  cervical intraepithelial neoplasia on repeat biopsy: no further evidence of cervical intraepithelial neoplasia

## CC(=O)Oc1ccccc1C(=O)O [aspirin]
HPV16 E7 mRNA [2]
  EGF-mediated induction of HPV16 E7 (Northern blot, mRNA): not

## COc1cc(/C=C/C(=O)CC(=O)/C=C/c2ccc(O)c(OC)c2)ccc1O [curcumin]
HPV16 E6 mRNA
  HPV16 E6 mRNA (Northern blot): downregulation

## O=C(O)c1ccccc1Nc1cccc(C(F)(F)F)c1 [flufenamic acid]
HPV16 E7 mRNA [2]
  EGF-mediated induction of HPV16 E7 (Northern blot, mRNA): inhibition

## CC(C)Cc1ccc(C(C)C(=O)O)cc1 (stereo not shown) [ibuprofen]
HPV16 E7 mRNA [2]
  EGF-mediated induction of HPV16 E7 (Northern blot, mRNA): not

## COc1ccc2c(c1)c(CC(=O)O)c(C)n2C(=O)c1ccc(Cl)cc1 [indomethacin]
HPV16 E7 mRNA [2]
  EGF-mediated induction of HPV16 E7 (Northern blot, mRNA): inhibition
HPV16 [5]
  repeat CAT scan, cervical cancer: no evidence of disease

## COc1ccc2cc([C@H](C)C(=O)O)ccc2c1 [naproxen]
HPV16 E7 mRNA [2]
  EGF-mediated induction of HPV16 E7 (Northern blot, mRNA): inhibition

## CN1C(C(=O)Nc2ccccn2)=C(O)c2ccccc2S1(=O)=O [piroxicam]
HPV16 E7 mRNA [2]
  EGF-mediated induction of HPV16 E7 (Northern blot, mRNA): not

## Oc1ccc(C=Cc2cc(O)cc(O)c2)cc1 [resveratrol]
HPV16 E6 mRNA
  HPV16 E6 mRNA (Northern blot): downregulation
[6]
  cutaneous warts after topical treatment: same results

## CSc1ccc(/C=C2/C(C)=C(CC(=O)O)c3cc(F)ccc32)cc1 [sulindac sulfide]
HPV16 E7 mRNA [2]
  EGF-mediated induction of HPV16 E7 mRNA (Northern blot): inhibition
  EGF-mediated induction of HPV16 E7 (Northern blot, mRNA): inhibition

## CC1=C(CC(=O)O)c2cc(F)ccc2/C1=C\c1ccc(S(C)(=O)=O)cc1 [sulindac sulfone]
HPV16 E7 mRNA [2]
  EGF-mediated induction of HPV16 E7 (Northern blot, mRNA): inhibition
